These results are taken from patent US20250340579A1 (priority 2022, published 2025).

For data set [1] the following is noted: in vivo; cited from earlier work.
For data set [2] the following is noted: pH 7.4.

As for `C/C1=C2/[N-][C@H]([C@H](CC(N)=O)[C@@]2(C)CCC(=O)NC[C@@H](C)O)[C@]2(C)N=C(/C(C)=C3N=C(/C=C4N=C1[C@@H](CCC(N)=O)C\4(C)C)[C@@H](CCC(N)=O)[C@]\3(C)CC(N)=O)[C@@H](CCC(N)=O)[C@]2(C)CC(N)=O.[Co+3]` [Cobinamide], the “effectiveness post-cyanide exposure versus pre-exposure” value in data set [1] is on record as “as effective when administered up to 5 minutes post-cyanide exposure as when given pre-exposure”.

Regarding bis-aminotetrazole-cobinamide, the solution stability entry in data set [2] is “stable at room temperature when protected from bright light”.
